Assay results: ChEMBL document CHEMBL5625170, “Design, synthesis, and biological evaluation of novel penindolone derivatives as potential inhibitors of hemagglutinin-mediated membrane fusion” (Eur J Med Chem, 2023)

Test system: Influenza A virus
Assay: Anti-viral activity against Influenza A virus amantadine-resistant strain (A/Puerto Rico/8/34) infected in MDCK cells assessed as inhibition of virus cytopathic effect measured after 48 hrs by crystal violet staining based assay
Format: functional, organism-based
Conditions: A/Puerto Rico/8/34, MDCK

Row | SMILES | IC50 [µM]
1 | C=CCn1c(Cc2c(O)c(C)cc(C(C)=O)c2O)c(Cc2c(O)c(C)cc(C(C)=O)c2O)c2ccccc21 | > 30
2 | CC(=O)c1cc(C)c(O)c(Cc2[nH]c3ccc(-c4cccc(O)c4)cc3c2Cc2c(O)c(C)cc(C(C)=O)c2O)c1O | > 30
3 | CC(=O)c1cc(C)c(O)c(Cc2[nH]c3ccc(-c4ccccc4)cc3c2Cc2c(O)c(C)cc(C(C)=O)c2O)c1O | 26
4 | CC(=O)c1cc(C)c(O)c(Cc2[nH]c3ccc(-c4cc(C(F)(F)F)cc(C(F)(F)F)c4)cc3c2Cc2c(O)c(C)cc(C(C)=O)c2O)c1O | > 30
5 | CC(=O)c1cc(C)c(O)c(Cc2[nH]c3ccc(C)cc3c2Cc2c(O)c(C)cc(C(C)=O)c2O)c1O | 20.6
6 | CC(=O)c1cc(C)c(O)c(Cc2[nH]c3ccc(-c4csc5ccccc45)cc3c2Cc2c(O)c(C)cc(C(C)=O)c2O)c1O | 23.4
7 | CC(=O)c1cc(C)c(O)c(Cc2[nH]c3ccc(-c4ccc(C)cc4)cc3c2Cc2c(O)c(C)cc(C(C)=O)c2O)c1O | 15.5
8 | CC(=O)c1cc(C)c(O)c(Cc2[nH]c3ccc(-c4ccc5ccccc5c4)cc3c2Cc2c(O)c(C)cc(C(C)=O)c2O)c1O | 20.7
9 | COc1cccc(OC)c1-c1ccc2c(Cc3c(O)c(C)cc(C(C)=O)c3O)c(Cc3c(O)c(C)cc(C(C)=O)c3O)[nH]c2c1 | 19.5
10 | CC(=O)c1cc(C)c(O)c(Cc2[nH]c3cc(-c4ccc5c(c4)CCO5)ccc3c2Cc2c(O)c(C)cc(C(C)=O)c2O)c1O | > 30
11 | CC(=O)c1cc(C)c(O)c(Cc2[nH]c3ccc(-c4cccc(F)c4)cc3c2Cc2c(O)c(C)cc(C(C)=O)c2O)c1O | > 30
12 | CC(=O)c1cc(C)c(O)c(Cc2c(Cc3c(O)c(C)cc(C(C)=O)c3O)n(Cc3ccc(F)cc3)c3ccccc23)c1O | > 30
13 | COc1ccc2[nH]c(Cc3c(O)c(C)cc(C(C)=O)c3O)c(Cc3c(O)c(C)cc(C(C)=O)c3O)c2c1 | 15.9
14 | CSc1ccc(-c2ccc3[nH]c(Cc4c(O)c(C)cc(C(C)=O)c4O)c(Cc4c(O)c(C)cc(C(C)=O)c4O)c3c2)cc1 | 17.5
15 | CC(=O)c1cc(C)c(O)c(Cc2[nH]c3ccc(-c4ccsc4)cc3c2Cc2c(O)c(C)cc(C(C)=O)c2O)c1O | > 30
16 | COc1ccc(-c2ccc3c(Cc4c(O)c(C)cc(C(C)=O)c4O)c(Cc4c(O)c(C)cc(C(C)=O)c4O)[nH]c3c2)cc1OC | 19.7
17 | CC(=O)c1cc(C)c(O)c(Cc2[nH]c3ccc(-c4ccc5ncccc5c4)cc3c2Cc2c(O)c(C)cc(C(C)=O)c2O)c1O | 18.5
18 | CC(=O)c1cc(C)c(O)c(Cc2[nH]c3ccc(/C=C/c4ccccc4)cc3c2Cc2c(O)c(C)cc(C(C)=O)c2O)c1O | > 30
19 | CC(=O)c1cc(C)c(O)c(Cc2[nH]c3cc(-c4ccc(C(F)(F)F)cc4)ccc3c2Cc2c(O)c(C)cc(C(C)=O)c2O)c1O | 25
20 | CC(=O)c1cc(C)c(O)c(Cc2[nH]c3cc(-c4ccccc4)ccc3c2Cc2c(O)c(C)cc(C(C)=O)c2O)c1O | 23.4
21 | CC(=O)c1cc(C)c(O)c(Cc2[nH]c3ccc(-c4cc(C)cc(C)c4)cc3c2Cc2c(O)c(C)cc(C(C)=O)c2O)c1O | 13.5
22 | CC(=O)c1cc(C)c(O)c(Cc2[nH]c3cc(-c4ccc5cccnc5c4)ccc3c2Cc2c(O)c(C)cc(C(C)=O)c2O)c1O | > 30
23 | COc1cccc(OC)c1-c1ccc2[nH]c(Cc3c(O)c(C)cc(C(C)=O)c3O)c(Cc3c(O)c(C)cc(C(C)=O)c3O)c2c1 | 21

Row | SMILES | IC50 [µM]
24 | CC(=O)c1cc(C)c(O)c(Cc2[nH]c3cc(-c4ccsc4)ccc3c2Cc2c(O)c(C)cc(C(C)=O)c2O)c1O | > 30
25 | CC(=O)c1cc(C)c(O)c(Cc2c(Cc3c(O)c(C)cc(C(C)=O)c3O)n(Cc3ccccc3)c3ccccc23)c1O | > 30
26 | CC(=O)c1cc(C)c(O)c(Cc2[nH]c3ccc(Br)cc3c2Cc2c(O)c(C)cc(C(C)=O)c2O)c1O | 25.2
27 | COc1ccc2cc(-c3ccc4c(Cc5c(O)c(C)cc(C(C)=O)c5O)c(Cc5c(O)c(C)cc(C(C)=O)c5O)[nH]c4c3)ccc2c1 | 23.3
28 | COc1ccc(-c2ccc3c(Cc4c(O)c(C)cc(C(C)=O)c4O)c(Cc4c(O)c(C)cc(C(C)=O)c4O)[nH]c3c2)cc1 | 8.7
29 | COc1ccc2c(Cc3c(O)c(C)cc(C(C)=O)c3O)c(Cc3c(O)c(C)cc(C(C)=O)c3O)[nH]c2c1 | 12.6
30 | CC(=O)c1cc(C)c(O)c(Cc2[nH]c3ccc(-c4ccccc4F)cc3c2Cc2c(O)c(C)cc(C(C)=O)c2O)c1O | > 30
31 | CC(=O)c1cc(C)c(O)c(Cc2[nH]c3cc(-c4ccccc4F)ccc3c2Cc2c(O)c(C)cc(C(C)=O)c2O)c1O | > 30
32 | CC(=O)c1cc(C)c(O)c(Cc2[nH]c3cc(-c4ccc(Cl)cc4)ccc3c2Cc2c(O)c(C)cc(C(C)=O)c2O)c1O | > 30
33 | CSc1ccc(-c2ccc3c(Cc4c(O)c(C)cc(C(C)=O)c4O)c(Cc4c(O)c(C)cc(C(C)=O)c4O)[nH]c3c2)cc1 | 9.1
34 | COc1cc(-c2ccc3c(Cc4c(O)c(C)cc(C(C)=O)c4O)c(Cc4c(O)c(C)cc(C(C)=O)c4O)[nH]c3c2)cc(OC)c1OC | 20.1
35 | CC(=O)c1cc(C)c(O)c(Cc2[nH]c3ccc(-c4ccc(C(F)(F)F)cc4)cc3c2Cc2c(O)c(C)cc(C(C)=O)c2O)c1O | 21.9
36 | CC(=O)c1cc(C)c(O)c(Cc2[nH]c3ccccc3c2Cc2c(O)c(C)cc(C(C)=O)c2O)c1O | 25.5
37 | CCOC(=O)C1=C[C@@H](OC(CC)CC)[C@H](NC(C)=O)[C@@H](N)C1 [OSELTAMIVIR] | 11.4
38 | CC(=O)c1cc(C)c(O)c(Cc2[nH]c3cc(-c4c5ccccc5c(-c5ccccc5)c5ccccc45)ccc3c2Cc2c(O)c(C)cc(C(C)=O)c2O)c1O | > 30
39 | CC(=O)c1cc(C)c(O)c(Cc2[nH]c3ccc(Cl)cc3c2Cc2c(O)c(C)cc(C(C)=O)c2O)c1O | > 30
40 | CC(=O)c1cc(C)c(O)c(Cc2[nH]c3cc(-c4cc(C(C)(C)C)cc(C(C)(C)C)c4)ccc3c2Cc2c(O)c(C)cc(C(C)=O)c2O)c1O | 26.8
41 | CC(=O)c1cc(C)c(O)c(Cc2[nH]c3ccc(-c4cc(C(C)(C)C)cc(C(C)(C)C)c4)cc3c2Cc2c(O)c(C)cc(C(C)=O)c2O)c1O | > 30
42 | CC(=O)c1cc(C)c(O)c(Cc2[nH]c3ccc(-c4ccc5c(c4)CCO5)cc3c2Cc2c(O)c(C)cc(C(C)=O)c2O)c1O | > 30
43 | CC(=O)c1cc(C)c(O)c(Cc2[nH]c3cc(-c4ccc(C)cc4)ccc3c2Cc2c(O)c(C)cc(C(C)=O)c2O)c1O | 24.1
44 | CC(=O)c1cc(C)c(O)c(Cc2[nH]c3cc(-c4cc(C)cc(C)c4)ccc3c2Cc2c(O)c(C)cc(C(C)=O)c2O)c1O | 10.1
45 | CC(=O)c1cc(C)c(O)c(Cc2[nH]c3ccc(F)cc3c2Cc2c(O)c(C)cc(C(C)=O)c2O)c1O | > 30
46 | COc1ccc(Cn2c(Cc3c(O)c(C)cc(C(C)=O)c3O)c(Cc3c(O)c(C)cc(C(C)=O)c3O)c3ccccc32)cc1 | > 30

Row | SMILES | IC50 [µM]
47 | COc1cc(-c2ccc3[nH]c(Cc4c(O)c(C)cc(C(C)=O)c4O)c(Cc4c(O)c(C)cc(C(C)=O)c4O)c3c2)cc(OC)c1OC | 8
48 | CC(=O)c1cc(C)c(O)c(Cc2[nH]c3cc(C)ccc3c2Cc2c(O)c(C)cc(C(C)=O)c2O)c1O | 15.1
49 | CC(=O)c1cc(C)c(O)c(Cc2[nH]c3cc(-c4ccc5ccccc5c4)ccc3c2Cc2c(O)c(C)cc(C(C)=O)c2O)c1O | 26
50 | CC(=O)c1cc(C)c(O)c(Cc2[nH]c3ccc(-c4ccc5c(c4)OCCO5)cc3c2Cc2c(O)c(C)cc(C(C)=O)c2O)c1O | 13
51 | CC(=O)c1cc(C)c(O)c(Cc2[nH]c3cc(-c4ccc(F)cc4)ccc3c2Cc2c(O)c(C)cc(C(C)=O)c2O)c1O | 20.6
52 | COc1ccc2cc(-c3ccc4[nH]c(Cc5c(O)c(C)cc(C(C)=O)c5O)c(Cc5c(O)c(C)cc(C(C)=O)c5O)c4c3)ccc2c1 | 21.2
53 | CC(=O)c1cc(C)c(O)c(Cc2[nH]c3cc(-c4cc(C(F)(F)F)cc(C(F)(F)F)c4)ccc3c2Cc2c(O)c(C)cc(C(C)=O)c2O)c1O | > 30
54 | COc1ccc(-c2ccc3[nH]c(Cc4c(O)c(C)cc(C(C)=O)c4O)c(Cc4c(O)c(C)cc(C(C)=O)c4O)c3c2)cc1 | 16.3
55 | CC(=O)c1cc(C)c(O)c(Cc2[nH]c3cc(-c4csc5ccccc45)ccc3c2Cc2c(O)c(C)cc(C(C)=O)c2O)c1O | 20.9
56 | CC(=O)c1cc(C)c(O)c(Cc2[nH]c3cc(/C=C/c4ccccc4)ccc3c2Cc2c(O)c(C)cc(C(C)=O)c2O)c1O | > 30
57 | CC(=O)c1cc(C)c(O)c(Cc2[nH]c3cc(-c4c5ccccc5cc5ccccc45)ccc3c2Cc2c(O)c(C)cc(C(C)=O)c2O)c1O | 8.3
58 | COc1ccc(-c2ccc3[nH]c(Cc4c(O)c(C)cc(C(C)=O)c4O)c(Cc4c(O)c(C)cc(C(C)=O)c4O)c3c2)cc1OC | 18.1
59 | CC(=O)c1cc(C)c(O)c(Cc2[nH]c3ccc(-c4ccc(Cl)cc4)cc3c2Cc2c(O)c(C)cc(C(C)=O)c2O)c1O | 27
60 | CC(=O)c1cc(C)c(O)c(Cc2[nH]c3ccc(-c4ccc(F)cc4)cc3c2Cc2c(O)c(C)cc(C(C)=O)c2O)c1O | > 30
61 | CC(=O)c1cc(C)c(O)c(Cc2[nH]c3cc(-c4cccc(F)c4)ccc3c2Cc2c(O)c(C)cc(C(C)=O)c2O)c1O | > 30
62 | CC(=O)c1cc(C)c(O)c(Cc2[nH]c3cc(-c4cccc(O)c4)ccc3c2Cc2c(O)c(C)cc(C(C)=O)c2O)c1O | > 30
63 | CC(=O)c1cc(C)c(O)c(Cc2[nH]c3ccc(-c4c5ccccc5cc5ccccc45)cc3c2Cc2c(O)c(C)cc(C(C)=O)c2O)c1O | 6.7
64 | CC(=O)c1cc(C)c(O)c(Cc2c(Cc3c(O)c(C)cc(C(C)=O)c3O)n(N)c3ccccc23)c1O | > 30
65 | CC(=O)c1cc(C)c(O)c(Cc2c(Cc3c(O)c(C)cc(C(C)=O)c3O)n(Cc3ccc(Cl)cc3)c3ccccc23)c1O | > 30
66 | CC(=O)c1cc(C)c(O)c(Cc2[nH]c3cc(-c4ccc5c(c4)OCCO5)ccc3c2Cc2c(O)c(C)cc(C(C)=O)c2O)c1O | 9.1
67 | CC(=O)c1cc(C)c(O)c(Cc2[nH]c3ccc(-c4c5ccccc5c(-c5ccccc5)c5ccccc45)cc3c2Cc2c(O)c(C)cc(C(C)=O)c2O)c1O | > 30
